The subject of experiment [1] is human breast cancer cells (MCF-7). Description: scratch assay, migration of MCF-7 cells. It counts as cell-based. The following applies: MCF-7, 10 μM, 48 hours; control group 30.97 ± 1.79. As for the experimental part: (§1) In the scratch assay, the cell migration rate was negatively correlated with the inhibitory effect of the drug component on tumor cell migration ability. The cell migration inhibition experiment was described as follows: tumor cells were cultured in vitro, cells in logarithmic growth phase were collected and seeded evenly in a 24-well plate at a density of 1-2×10^5 cells/well; the cells were cultured in a cell incubator until a monolayer was formed; a scratch tool was used to make a “-” (straight) scratch on the monolayer of cells; the cells were washed 1-3 times with PBS, and a medium (with 2% fetal bovine serum) containing specific test components was added to the culture. Experimental grouping: PBS control group; polypeptide or derivative thereof treatment group (N1-N54), 10 μM. Three independent parallel wells were set up in each group, and the cells were cultured continuously in a cell incubator for 48 hours. […] At least 3 representative images for each well were taken. ImageJ software was used to count the migration distance of the cells, and the cell migration rate was calculated as: cell migration rate (%)=(width of original scratch−width of current scratch)/width of original scratch×100.
This example was a scratch assay to evaluate the inhibitory effect of the polypeptide or derivative thereof (N1-N54) on the migration ability of human breast cancer cells (MCF-7). The experimental method was as described in Example 2.

The subject of experiment [2] is human breast cancer cells (MDA-MB-231). Description: scratch assay, migration of MDA-MB-231 cells. Type of experiment: cell-based. The following applies: MDA-MB-231, 10 μM, 48 hours; control group 36.19 ± 5.15. The protocol:
as §1
This example was a scratch assay to evaluate the inhibitory effect of the polypeptide or derivative thereof (N1-N54) on the migration ability of human breast cancer cells (MDA-MB-231). The experimental method was as described in Example 2.

Experiment [3] relates to human pancreatic cancer cells (PANC-1). Description: transwell invasion assay, PANC-1 cells. Type of experiment: cell-based. The following applies: PANC-1 transwell invasion, 10 μM, 24 hours; control group 727 ± 68. An excerpt:
The Transwell chamber system was used in the transwell cell invasion experiment. The chamber has an upper layer and a lower layer, which are separated by an artificial semipermeable membrane in the middle. The upper surface of the semipermeable membrane is coated with a layer of artificial matrigel to simulate extracellular matrix. Cells that have invaded through the matrigel and semi-permeable membrane will attach to the lower surface of the semi-permeable membrane. The invasion ability is evaluated by counting the number of cells on the lower surface of the semi-permeable membrane. The number of cells that have invaded is negatively correlated with the inhibitory effect of the drug on the invasion ability of the tumor cells. Transwell invasion assay was performed as follows: tumor cells were cultured in vitro, cells in logarithmic growth phase were collected, and cell suspension was prepared with fresh serum-free medium at a density of 2-3×10^5 cells/mL. Cells were inoculated, 100 μL/well cell suspension (serum-free medium) in the upper chamber and 600 μL/well complete culture medium in the lower chamber. After incubated in 37° C., 5% CO2 incubator for 4-5 hours, serum-free medium (100 μL/well) was added to the control group, and serum-free medium containing polypeptide or derivative thereof (N1-N54) was added to the upper chamber of the treatment group (100 μL/well), the final concentration of the peptide or derivative thereof in the upper chamber was 10 μM. The cells were incubated continuously for 24 hours, and then fixed with methanol and stained with crystal violet. Images were taken under a microscope and the number of invaded cells was counted with ImageJ.
This example was the transwell cell invasion experiment to evaluate the inhibitory effect of the polypeptide or derivative thereof (N1-N54) on the invasion ability of human pancreatic cancer cells (PANC-1). The experimental method was as described in Example 4.

Experiment [4] has the same test system. The experiment can be described thus: scratch assay, migration of PANC-1 cells. It counts as cell-based. The following applies: PANC-1, 10 μM, 48 hours; control group 66.65 ± 3.37. The protocol:
as §1
This example was a scratch assay to evaluate the inhibitory effect of the polypeptide or derivative thereof (N1-N54) on the migration ability of human pancreatic cancer cells (PANC-1). The experimental method was as described in Example 2.

The test system of experiment [5] is human breast cancer cells (MDA-MB-453). The experiment can be described thus: scratch assay, migration of MDA-MB-453 cells. It counts as cell-based. The following applies: MDA-MB-453, 10 μM, 48 hours; control group 32.42 ± 2.04. As for the experimental part: as §1
This example was a scratch assay to evaluate the inhibitory effect of the polypeptide or derivative thereof (N1-N54) on the migration ability of human breast cancer cells (MDA-MB-453). The experimental method was as described in Example 2.

The test system of experiment [6] is human lung cancer cells (A549) subcutaneous xenograft. Description: lung cancer subcutaneous xenograft animal model, intravenous injection. The note with it: intravenous 60 mg/kg once every other day, 20 days; for Weight of tumor (g) (mean ± SD): control 2.53 ± 0.17; for Volume of tumor (mm^3) (mean ± SD): control 3373.26 ± 581.44. Type of experiment: in vivo, mice (BALB/c-nu/nu). The protocol: Experimental animals: 4-6 weeks old female immunodeficiency mice (BALB/c-nu/nu, Beijing Vital River Laboratory Animal Technology Co., Ltd.).
Subcutaneous xenograft animal model. The number of cells inoculated subcutaneously vin mice was about 2×10^6/200 μL. When the volume of the subcutaneous tumor was greater than 100 mm^3, the mice were randomly divided into groups and subjected to treatment. When the mass volume of the tumors in model control group reached 2000 mm^3 or the animal dies, the treatment ended. The animals were dissected, the tumors were taken out, and the weight and volume of the tumors were measured. During the period of the entire experiment, the mice were observed and the body weight was measured every other day.
The method used in the efficacy test on the lung cancer subcutaneous xenograft animal model was as described in Example 5. The lung cancer cells were the human lung cancer cells (A549), and the route of administration was intravenous injection. This example involved a total of 3 experiments to evaluate N1-N15, N16-N30, and N31-N54 respectively. The experimental procedure, route of administration, dosage and frequency of administration, and detection method were all consistent in the three experiments. The experimental groups were model control group and polypeptide or derivative thereof treatment groups (N1-N15, N16-N30, or N31-N54). The drug dosage of the N1-N54 treatment groups was 60 mg/kg, and the treatment time was 20 days.

For experiment [7], the system named is human liver cancer cells (HepG2). The experiment can be described thus: scratch assay, migration of HepG2 cells. The following applies: HepG2, 10 μM, 48 hours; control group 71.01 ± 6.63. It counts as cell-based. As for the experimental part:
as §1
This example was a scratch assay to evaluate the inhibitory effect of the polypeptide or derivative thereof (N1-N54) on the migration ability of human liver cancer cells (HepG2). The experimental method was as described in Example 2.

Experiment [8] concerns human prostate cancer cells (22RV1). Description: scratch assay, migration of 22RV1 cells. Type of experiment: cell-based. The note with it: 22RV1, 10 μM, 48 hours; control group 25.41 ± 5.01. The protocol: as §1
This example was a scratch assay to evaluate the inhibitory effect of the polypeptide or derivative thereof (N1-N54) on the migration ability of human prostate cancer cells (22RV1). The experimental method was as described in Example 2.

In the case of “N15: SEQ ID NO: 1 with substitution N18R and addition of one amino acid to the carboxyl terminal (YRVRFLAKENVTQDAEDRC)”, the “Migration rate (%) (mean ± SD, P)” value in experiment [1] is 11.57 ± 2.10,** %; in experiment [2] it was 13.03 ± 5.72,** %; in experiment [4] it was 14.85 ± 5.08,*** %; in experiment [5] it was 8.95 ± 2.93,*** %; in experiment [7] it was 53.20 ± 5.58,* %; in experiment [8] it was 8.36 ± 2.03,** %. Besides, the “Number of cells (mean ± SD, P), invaded cells” value (shortened to “Number of cells (mean ± SD, P)”) in experiment [3] is 104 ± 9,****. The “Weight of tumor (g) (mean ± SD)” value in experiment [6] is 0.95 ± 0.18 g. Further, in experiment [6], the “Volume of tumor (mm^3) (mean ± SD)” value is 1307.48 ± 416.26 mm^3.
Turning to “N16: SEQ ID NO: 1 with substitution A7R and addition of one amino acid at the carboxyl terminus (YRVRFLRKENVTQDAEDNC)”, the “Migration rate (%) (mean ± SD, P)” value in experiment [1] is reported as 9.81 ± 3.29,** %; in experiment [2] it was 14.99 ± 6.11,* %; in experiment [4], 19.15 ± 4.97,*** %; in experiment [5] it was 8.11 ± 1.71,*** %; in experiment [7], 43.25 ± 5.18,** %; in experiment [8] it was 9.75 ± 2.14,** %. The “Number of cells (mean ± SD, P)” value in experiment [3] was 128 ± 25,****. In addition, the “Weight of tumor (g) (mean ± SD)” value in experiment [6] was 1.05 ± 0.26 g. The “Volume of tumor (mm^3) (mean ± SD)” value in experiment [6] is recorded as 1442.4 ± 293.63 mm^3.
For “N17: SEQ ID NO: 1 with addition of two amino acids to the carboxyl terminal (YRVRFLAKENVTQDAEDNCT)”, the “Migration rate (%) (mean ± SD, P)” value in experiment [1] is given as 11.47 ± 4.24,** %; in experiment [2] it was 12.04 ± 4.13,** %; in experiment [4], 15.47 ± 5.29,*** %; in experiment [5], 4.51 ± 1.96,*** %; in experiment [7], 43.42 ± 3.16,** %; in experiment [8] it was 4.61 ± 1.64,** %. Moreover, the “Number of cells (mean ± SD, P)” value in experiment [3] was 95 ± 6,****. For the same substance, in experiment [6], the “Weight of tumor (g) (mean ± SD)” value is reported as 0.9 ± 0.16 g. For the same substance, the “Volume of tumor (mm^3) (mean ± SD)” value in experiment [6] is given as 1301.58 ± 329.64 mm^3.
As for “N18: SEQ ID NO: 1 with addition of one amino acid at the amino terminal and one at the carboxyl terminal (FYRVRFLAKENVTQDAEDNC)”, the “Migration rate (%) (mean ± SD, P)” value in experiment [1] is given as 10.40 ± 2.72,** %; in experiment [2], 18.64 ± 6.98,* %; in experiment [4] it was 13.26 ± 7.39,*** %; in experiment [5], 9.97 ± 2.44,*** %; in experiment [7], 48.73 ± 3.52,** %; in experiment [8] it was 6.75 ± 3.22,** %. The “Number of cells (mean ± SD, P)” value in experiment [3] is recorded as 118 ± 14,****. Moreover, in experiment [6], the “Weight of tumor (g) (mean ± SD)” value is listed as 1.3 ± 0.24 g. Moreover, in experiment [6], the “Volume of tumor (mm^3) (mean ± SD)” value was found to be 1161.51 ± 297.07 mm^3.
Take “N19: SEQ ID NO: 1 with deletion of positions 1-5 and 15-18 and addition of two amino acids at the carboxyl terminal (LAKENVTQDRC)”: the “Migration rate (%) (mean ± SD, P)” value is 11.84 ± 3.95,** % in experiment [1]; 15.23 ± 3.54,* % in experiment [2]; 19.76 ± 7.14,*** % in experiment [4]; 25.49 ± 2.69,* % in experiment [5]; 12.10 ± 6.15,*** % in experiment [7]; 5.36 ± 1.6,** % in experiment [8]. Further, the “Number of cells (mean ± SD, P)” value in experiment [3] is 213 ± 20,****. Moreover, the “Weight of tumor (g) (mean ± SD)” value in experiment [6] was found to be 0.81 ± 0.19 g. In experiment [6], the “Volume of tumor (mm^3) (mean ± SD)” value stood at 1235.44 ± 432.58 mm^3.
On to “N20: SEQ ID NO: 1 with addition of one amino acid at the amino terminal and deletion of position 18 (RYRVRFLAKENVTQDAED)”, for which the “Migration rate (%) (mean ± SD, P)” value in experiment [1] was 13.73 ± 4.97,** %; in experiment [2], 20.18 ± 3.38,* %; in experiment [4], 41.56 ± 6.68,* %; in experiment [5], 7.67 ± 1.35,** %; in experiment [7] it was 14.22 ± 6.12,*** %; in experiment [8], 4.88 ± 1.48,** %. Moreover, in experiment [3], the “Number of cells (mean ± SD, P)” value is listed as 273 ± 12,****. Moreover, the “Weight of tumor (g) (mean ± SD)” value in experiment [6] stood at 0.56 ± 0.18 g. In addition, the “Volume of tumor (mm^3) (mean ± SD)” value in experiment [6] was determined as 1072.16 ± 390.44 mm^3.
For “N21: SEQ ID NO: 1 with deletion of positions 1-5 and 15-18 and addition of one amino acid at the amino terminal (SLAKENVTQD)”, the “Migration rate (%) (mean ± SD, P)” value in experiment [1] was 10.43 ± 2.18,** %; in experiment [2], 19.95 ± 5.47,* %; in experiment [4] it was 10.54 ± 9.03,*** %; in experiment [5], 13.59 ± 2.07,** %; in experiment [7] it was 15.00 ± 7.29,*** %; in experiment [8], 12.79 ± 3.06,* %. For the same substance, in experiment [3], the “Number of cells (mean ± SD, P)” value was 269 ± 28,****. Moreover, the “Weight of tumor (g) (mean ± SD)” value in experiment [6] amounted to 0.71 ± 0.22 g. For the same substance, the “Volume of tumor (mm^3) (mean ± SD)” value in experiment [6] came to 1065.78 ± 432.05 mm^3.

(Values after patent US20220280594A1, “APPLICATION OF POLYPEPTIDE OR DERIVATIVE THEREOF” (CHENGDU HUITAI BIOMEDICINE CO., LTD., priority 2019, published 2022).)
